± gives the expanded uncertainty stated by the source.
Assay: xn = mol fraction of the nth substance listed
Settings: 100 kPa, Liquid; for electrical conductivity: Alternating current cell with electrodes; for mass density: Vibrating tube method; for viscosity: Capillary tube (Ostwald / Ubbelohde) method

CCCC[N+]1(C)CCCC1.N#CN=C=[N-] [1-butyl-1-methylpyrrolidinium dicyanamide] + O=C1CCCO1
Settings	electrical conductivity [S/m]
313.15 K, Frequency=0.00694444 MHz, x1 = 0.4985	2.88 ± 0.029
313.15 K, Frequency=0.00694444 MHz, x1 = 0.6954	2.43 ± 0.025
313.15 K, Frequency=0.00694444 MHz, x1 = 0.9013	2.09 ± 0.021
313.15 K, Frequency=0.00694444 MHz, x1 = 1	2 ± 0.02
313.15 K, Frequency=0.0075 MHz, x1 = 0.0463	1.79 ± 0.032
313.15 K, Frequency=0.0075 MHz, x1 = 0.0987	2.73 ± 0.034
313.15 K, Frequency=0.0075 MHz, x1 = 0.1449	3.13 ± 0.033
313.15 K, Frequency=0.0075 MHz, x1 = 0.1859	3.37 ± 0.034
313.15 K, Frequency=0.0075 MHz, x1 = 0.2493	3.36 ± 0.034
313.15 K, Frequency=0.0075 MHz, x1 = 0.3029	3.321 ± 0.033
313.15 K, Frequency=0.0075 MHz, x1 = 0.3845	3.16 ± 0.032
313.15 K, Frequency=0.0075 MHz, x1 = 0.4985	2.88 ± 0.029
313.15 K, Frequency=0.0075 MHz, x1 = 0.6954	2.43 ± 0.025
313.15 K, Frequency=0.0075 MHz, x1 = 0.9013	2.09 ± 0.021
313.15 K, Frequency=0.0075 MHz, x1 = 1	2 ± 0.02
313.15 K, Frequency=0.008 MHz, x1 = 0.0463	1.79 ± 0.032
313.15 K, Frequency=0.008 MHz, x1 = 0.0987	2.73 ± 0.034
313.15 K, Frequency=0.008 MHz, x1 = 0.1449	3.13 ± 0.033
313.15 K, Frequency=0.008 MHz, x1 = 0.1859	3.37 ± 0.034
313.15 K, Frequency=0.008 MHz, x1 = 0.2493	3.36 ± 0.034
313.15 K, Frequency=0.008 MHz, x1 = 0.3029	3.321 ± 0.033
313.15 K, Frequency=0.008 MHz, x1 = 0.3845	3.16 ± 0.032
313.15 K, Frequency=0.008 MHz, x1 = 0.4985	2.88 ± 0.029
313.15 K, Frequency=0.008 MHz, x1 = 0.6954	2.43 ± 0.025
313.15 K, Frequency=0.008 MHz, x1 = 0.9013	2.09 ± 0.021
313.15 K, Frequency=0.008 MHz, x1 = 1	2 ± 0.02
313.15 K, Frequency=0.00857143 MHz, x1 = 0.0463	1.79 ± 0.032
313.15 K, Frequency=0.00857143 MHz, x1 = 0.0987	2.73 ± 0.034
313.15 K, Frequency=0.00857143 MHz, x1 = 0.1449	3.13 ± 0.033
313.15 K, Frequency=0.00857143 MHz, x1 = 0.1859	3.37 ± 0.034
313.15 K, Frequency=0.00857143 MHz, x1 = 0.2493	3.36 ± 0.034
313.15 K, Frequency=0.00857143 MHz, x1 = 0.3029	3.321 ± 0.033
313.15 K, Frequency=0.00857143 MHz, x1 = 0.3845	3.16 ± 0.032
313.15 K, Frequency=0.00857143 MHz, x1 = 0.4985	2.88 ± 0.029
313.15 K, Frequency=0.00857143 MHz, x1 = 0.6954	2.43 ± 0.025
313.15 K, Frequency=0.00857143 MHz, x1 = 0.9013	2.09 ± 0.021
313.15 K, Frequency=0.00857143 MHz, x1 = 1	2 ± 0.02
313.15 K, Frequency=0.00892857 MHz, x1 = 0.0463	1.79 ± 0.032
313.15 K, Frequency=0.00892857 MHz, x1 = 0.0987	2.73 ± 0.034
313.15 K, Frequency=0.00892857 MHz, x1 = 0.1449	3.13 ± 0.033
313.15 K, Frequency=0.00892857 MHz, x1 = 0.1859	3.37 ± 0.034
313.15 K, Frequency=0.00892857 MHz, x1 = 0.2493	3.36 ± 0.034
313.15 K, Frequency=0.00892857 MHz, x1 = 0.3029	3.321 ± 0.033
313.15 K, Frequency=0.00892857 MHz, x1 = 0.3845	3.16 ± 0.032
313.15 K, Frequency=0.00892857 MHz, x1 = 0.4985	2.88 ± 0.029
313.15 K, Frequency=0.00892857 MHz, x1 = 0.6954	2.43 ± 0.025
313.15 K, Frequency=0.00892857 MHz, x1 = 0.9013	2.09 ± 0.021
313.15 K, Frequency=0.00892857 MHz, x1 = 1	2 ± 0.02
313.15 K, Frequency=0.00961538 MHz, x1 = 0.0463	1.79 ± 0.032
313.15 K, Frequency=0.00961538 MHz, x1 = 0.0987	2.73 ± 0.034
313.15 K, Frequency=0.00961538 MHz, x1 = 0.1449	3.13 ± 0.033
313.15 K, Frequency=0.00961538 MHz, x1 = 0.1859	3.37 ± 0.034
313.15 K, Frequency=0.00961538 MHz, x1 = 0.2493	3.36 ± 0.034
313.15 K, Frequency=0.00961538 MHz, x1 = 0.3029	3.322 ± 0.033
313.15 K, Frequency=0.00961538 MHz, x1 = 0.3845	3.16 ± 0.032
313.15 K, Frequency=0.00961538 MHz, x1 = 0.4985	2.88 ± 0.029
313.15 K, Frequency=0.00961538 MHz, x1 = 0.6954	2.43 ± 0.025
313.15 K, Frequency=0.00961538 MHz, x1 = 0.9013	2.09 ± 0.021
313.15 K, Frequency=0.00961538 MHz, x1 = 1	2 ± 0.02
313.15 K, Frequency=0.01 MHz, x1 = 0.0463	1.79 ± 0.032
313.15 K, Frequency=0.01 MHz, x1 = 0.0987	2.73 ± 0.034
313.15 K, Frequency=0.01 MHz, x1 = 0.1449	3.13 ± 0.033
313.15 K, Frequency=0.01 MHz, x1 = 0.1859	3.37 ± 0.034
313.15 K, Frequency=0.01 MHz, x1 = 0.2493	3.36 ± 0.034
313.15 K, Frequency=0.01 MHz, x1 = 0.3029	3.322 ± 0.033
313.15 K, Frequency=0.01 MHz, x1 = 0.3845	3.16 ± 0.032
313.15 K, Frequency=0.01 MHz, x1 = 0.4985	2.88 ± 0.029
313.15 K, Frequency=0.01 MHz, x1 = 0.6954	2.43 ± 0.025
313.15 K, Frequency=0.01 MHz, x1 = 0.9013	2.09 ± 0.021
313.15 K, Frequency=0.01 MHz, x1 = 1	2 ± 0.02
323.15 K, Frequency=0.0005 MHz, x1 = 0.0463	1.99 ± 0.036
323.15 K, Frequency=0.0005 MHz, x1 = 0.0987	3.06 ± 0.039
323.15 K, Frequency=0.0005 MHz, x1 = 0.1449	3.56 ± 0.038
323.15 K, Frequency=0.0005 MHz, x1 = 0.1859	3.816 ± 0.038
323.15 K, Frequency=0.0005 MHz, x1 = 0.2493	3.88 ± 0.039
323.15 K, Frequency=0.0005 MHz, x1 = 0.3029	3.85 ± 0.039
323.15 K, Frequency=0.0005 MHz, x1 = 0.3845	3.726 ± 0.037
323.15 K, Frequency=0.0005 MHz, x1 = 0.4985	3.45 ± 0.035
323.15 K, Frequency=0.0005 MHz, x1 = 0.6954	2.99 ± 0.03
323.15 K, Frequency=0.0005 MHz, x1 = 0.9013	2.622 ± 0.026
323.15 K, Frequency=0.0005 MHz, x1 = 1	2.525 ± 0.025
323.15 K, Frequency=0.001 MHz, x1 = 0.0463	2 ± 0.036

Settings	electrical conductivity, 323.15 K [S/m]	mass density, 313.15 K [kg/m3]	viscosity, 323.15 K [mPa·s]
x1 = 0.0463	2.01 ± 0.037	–	–
x1 = 0.0987	3.08 ± 0.039	1090.51 ± 8.7	1.87 ± 0.04
x1 = 0.1449	3.57 ± 0.038	–	–
x1 = 0.1859	3.85 ± 0.039	1075.67 ± 8.6	2.58 ± 0.06
x1 = 0.2493	3.89 ± 0.039	–	–
x1 = 0.3029	3.88 ± 0.039	1059.04 ± 8.5	3.77 ± 0.08
x1 = 0.3845	3.74 ± 0.038	–	–
x1 = 0.4985	3.46 ± 0.035	1037.83 ± 8.3	6.36 ± 0.14
x1 = 0.6954	2.99 ± 0.03	1022.16 ± 8.2	9.69 ± 0.22
x1 = 0.9013	2.633 ± 0.026	1009.87 ± 8.1	13.92 ± 0.32
x1 = 1	2.529 ± 0.025	1005.06 ± 8.1	16.15 ± 0.37

— the NIST ThermoML archive (doi:10.1016/j.jct.2015.08.014)
